Test system: human chromosome
Assay: In-situ hybridization of a human chromosome: fluorescence-generating substrate reacted with probe-bonded peroxidase and hydrogen peroxide, observed by fluorescence microscope
Design: key to Intensity of Fluorescence / Binding: +++: Very strong.; ++: Strong.; +: Weak.; ±: Very weak.; -: Not detected
Details: for Binding: binding of the substrate to the chromosome, same reaction conditions; for Intensity of Fluorescence: human chromosome sample from peripheral blood lymphocytes, substrate in 0.01% hydrogen peroxide, room temperature 30 minutes, fluorescence microscope; for fluorescent signals observed: summary of Table 1
Source text: A human chromosome sample was hybridized with a digoxigenin-labeled, full-length human DNA probe, to which was bonded a peroxidase-labeled anti-digoxigenin antibody. This was reacted with any of fluorescence-generating substrates of the invention (Compounds 1 to 11) or with a comparative substrate of a commercially available, water-soluble fluorescent substrate, 3-(4-hydroxyphenyl)propionic acid (HPPA). […] The full-length human DNA probe hybridizes entirely with the human chromosome. Therefore, if the fluorescence-generating substrates tested herein are reacted in a reaction system comprising peroxidase and hydrogen peroxide, the entire chromosome in the system shall be seen to emit fluorescence in the fluorescence-microscopic observation.
The procedure is as follows:
Human chromosome samples were prepared from cultured human peripheral blood lymphocytes. Full-length human DNA was labeled with digoxigenin through nick translation, collected through ethanol precipitation, and dissolved in formamide to prepare a digoxigenin-labeled, full-length human DNA probe. Each human chromosome sample was immersed in a denaturing solution kept heated at 70° C., for 2 minutes, and then rapidly cooled by putting it into 70% ethanol cooled to 4° C., whereby the double-stranded DNA of the sample was kept dissociated in a single-stranded condition. The probe was kept in a water bath at 75° C. for 10 minutes, and then rapidly cooled in ice water with 5 minutes, whereby the double-stranded DNA of the probe was kept dissociated in a single-stranded condition. This probe was mixed with a hybridization solution, put on the human chromosome sample, and reacted with it overnight at 37° C. (in-situ hybridization).
After having been hybridized, the system was washed with a solution of 50% formamide/2×SSC at 37° C. for 15 minutes, then with 2×SSC at room temperature for 15 minutes, and then with 4×SSC at room temperature for 5 minutes, thereby removing the excess, non-hybridized probe therefrom. Next, a pcroxidase-labeled anti-digoxigenin antibody was diluted with a 1% blocking solution into a 1/100 dilution, and the resulting enzyme-labeled antibody dilution was put on the sample, and maintained at 37° C. for 1 hour. The excess enzyme antibody not bonded to the probe was removed by washing the system with a washing solution containing a surfactant. Any of the fluorescence-generating substrates (Compounds 1 to 11) of the invention and a commercially-available, water-soluble fluorescent substrate, HPPA was dissolved in a reactant solution containing 0.01% hydrogen peroxide […], and the resulting fluorescent substrate solution was put on the sample and reacted with it at room temperature for 30 minutes. After reacting in the reaction system comprising the probe-bonded peroxidase and hydrogen peroxide, the fluorescence-generating substrate formed a new compound which was fixed on the chromosome and emitted fluorescence, which was observed using a fluorescence microscopic.
The full-length human DNA probe hybridizes with the entire chromosome, with the result that the entire chromosome was stained with the fluorescence-generating substrate. Sample were processed with any of the fluorescent substrates (Compounds 1 to 11) as well as the commercially-available, water-soluble fluorescent substrate, […]. […] In addition, the binding of the substrate to the chromosome was checked.

Binding	Intensity of Fluorescence	Compound	fluorescent signals observed	binding of the enzymatic reaction product to the chromosome (product after the enzymatic reaction)
+++	+++	O=C(O)CCCCCNC(=O)CCc1ccc(O)cc1 [Compound 11, 6-{3-(4-hydroxyphenyl)propionamido}hexanoic acid]	high-intensity fluorescent signals were observed	–
+	±	O=C(O)CCc1ccc(O)cc1 [HPPA, 3-(4-hydroxyphenyl)propionic acid, reference compound]	few fluorescent signals were detected	soluble in water or could not bind to the chromosome
++	++	Cc1cc(O)ccc1NC(=O)c1ccccc1C [Compound 9]	–	–
++	++	Cc1cc(C)c(C(=O)Nc2ccc(O)cc2C)c(C)c1 [Compound 10, 4-hydroxy-2-methylphenyl-2,4,6-trimethylbenzamide]	–	–

Reference: patent US6180844A, “Composition containing fluorescence-generating substrate” (Aisin Seiki Kabushiki Kaisha, priority 1998, dated 2001)
